# Data as given in patent publication EP0733364A1, “MEDICINAL COMPOSITION FOR CIRCULATORY ORGAN” (NIPPON SHINYAKU COMPANY, LIMITED, priority 1993, dated 1995).
# Values joined by “and” are separate entries in the source; they are usually repeats but may differ in a detail not shown here. Identical values can stand only once.
# Columns and labels:
# Type in all cases: in vivo, beagle dogs
# fibrin clot = assay: Fibrinolytic action: lysis of 125I-fibrin clot made from plasma obtained 48 hr after drug administration; details: for Fibrinolysis (%) : (24 hr after addition of Urokinase): N 4, mean S.E.
# Procedure: The plasma obtained 48 hr after drug administration in Test Example 1 was used in this test.
# To 0.35 ml of plasma was added 40 µl ^125I-fibrinogen (185 kBq/ml) and the mixture was dispensed to 3 test tubes, 0.1 ml per tube. To each of the test tubes was added 10 µl each of 100 µU/ml thrombin solution and 0.5 M calcium chloride solution and, after stirring, each tube was incubated at 37°C for 30 min to prepare a fibrin clot. Then, 2% albumin-saline containing 0, 50 or 100 U of urokinase was added to the tubes, 1 ml per tube. The tubes were incubated at 37°C and at 0, 3, 6, 9, 21 and 24 hr of incubation, 50µl of the supernatant was taken in a RIA tube and using a γ-counter (Packard Japan, A5424), the amount of the ^125I-fibrin degradated product was determined.
# [1] = Observation for evaluation of diarrhea (stool property); set-up: key to stool property: -: normal stool; ±: slightly soft stool; +: soft stool; ++: mild diarrhea; +++: diarrhea; details: for stool property: one line per animal
# Description: In Test Example 1, the stool property was monitored every day and rated on the 5-point scale of -: normal, ±: slightly soft stool, +: soft stool, ++: mild diarrhea, +++: diarrheal.
# α2-PI = assay: Assay of α2-PI activity in plasma after oral administration; details: oral once a day for 3 days (0, 24, 48 hr), 116 mg/kg compound A as printed, Fig. 1
# Procedure: The drugs were administered to groups of 4 beagle dogs (22-23 months old, body weights 9-11 kg) and the blood was serially sampled (-120, 0, 6, 24, 48, 72, 96, and 168 hr) for assay of α2-PI activity. One capsule of either compound A or compound B was administered orally once a day for 3 days (at 0, 24, and 48 hr) [116 mg/kg compound A or 300 mg/kg compound B (equimolar to compound A)]. Blood sampling was carried out by drawing 9 volumes of blood into a vacuum blood sampling tube containing 1 volume of 3.8% sodium citrate and, after gentle mixing, each blood sample was centrifuged (3,000 rpm x 10 min.) to separate the plasma. The plasma α2-PI activity was assayed with Test Team APL 2 Kit using the cleavage of the synthetic chromogenic substrate S-2251 as an indicator by plasmin.
SMILES,"Fibrinolysis (%) : (24 hr after addition of Urokinase) (fibrin clot; Urokinase 0U, 116mg/kg)","Fibrinolysis (%) : (24 hr after addition of Urokinase) (fibrin clot; Urokinase 50U, 116mg/kg)","Fibrinolysis (%) : (24 hr after addition of Urokinase) (fibrin clot; Urokinase 100U, 116mg/kg)","stool property ([1]; Day 1, 116mg/kg oral once a day for 3 days, 116 mg/kg)","stool property ([1]; Day 3, 116mg/kg oral once a day for 3 days, 116 mg/kg)","stool property ([1]; Day 4, 116mg/kg oral once a day for 3 days, 116 mg/kg)","stool property ([1]; Day 7, 116mg/kg oral once a day for 3 days)",α2-PI activity (α2-PI),"Fibrinolysis (%) : (24 hr after addition of Urokinase) (fibrin clot; Urokinase 0U, 300mg/kg)","Fibrinolysis (%) : (24 hr after addition of Urokinase) (fibrin clot; Urokinase 50U, 300mg/kg)","Fibrinolysis (%) : (24 hr after addition of Urokinase) (fibrin clot; Urokinase 100U, 300mg/kg)",fibrinolytic activity (fibrin clot; urokinase addition level of 100 U),"stool property ([1]; Day 1, 300mg/kg oral once a day for 3 days, 300 mg/kg)","stool property ([1]; Day 3, 300mg/kg oral once a day for 3 days, 300 mg/kg)","stool property ([1]; Day 4, 300mg/kg oral once a day for 3 days, 300 mg/kg)","stool property ([1]; Day 7, 300mg/kg oral once a day for 3 days, 300 mg/kg)",diarrhea-inducing effect ([1]; summary of Table 2)
"CN1C[C@H](O)[C@@H](O)[C@H](O)[C@H]1CO [Compound B, N-methylmoranoline, reference compound]",172 ± 56%,213 ± 27%,340 ± 49%,+++ (2×) and ++ and +,+++ (3×) and + +,+ (2×) and ± (2×),-,,,,,,,,,,
"CCCC(=O)OCC1C(OC(=O)CCC)C(OC(=O)CCC)C(OC(=O)CCC)CN1C (centres unmarked) [Compound A, 2,3,4,5-tetra-O-butyryl-N-methyl-moranoline]",,,,,,,,decreased α2-PI activity significantly,143 ± 27%,278 ± 31%,342 ± 30%,significantly accelerated the fibrinolytic activity,+ and - and ± and +++,+++ and ± (2×) and -,± (2×) and - (2×),± and - (3×),less remarkable in diarrhea-inducing effect than compound B
